The target of test [1] is T1, Human Mer (Homo sapiens, UniProt Q12866).
T1 construct: Human Mer (residues R557-E882 with H628Q and R794A, 0.7 nM); purchased Eurofins Pharma Discovery Services UK Limited (KinaseProfiler service)
T1 sequence (Q12866 557-882 limits assumed): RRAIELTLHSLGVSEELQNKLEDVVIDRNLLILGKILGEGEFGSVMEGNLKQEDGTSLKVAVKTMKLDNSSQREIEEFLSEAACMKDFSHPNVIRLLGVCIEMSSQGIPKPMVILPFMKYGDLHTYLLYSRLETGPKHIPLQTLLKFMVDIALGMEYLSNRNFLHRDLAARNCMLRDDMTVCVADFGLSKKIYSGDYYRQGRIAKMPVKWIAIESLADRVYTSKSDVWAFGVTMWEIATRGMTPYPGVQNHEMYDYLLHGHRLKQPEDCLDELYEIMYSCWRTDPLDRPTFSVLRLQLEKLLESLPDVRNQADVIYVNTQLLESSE
The test is described as follows: Human Mer kinase assay (33P radiometric / HTRF KinEase). It counts as biochemical. Particulars: protocols of Examples C-1 and/or C-2. Summed up:
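Two formats yield IC50 values. HTRF KinEase used MER residues 528-999 with ATP at Km (40 μM), 1 μM biotin-peptide, 60 min RT, […], 10 concentrations. 33P filter assay used 0.7 nM Mer R557-E882 (H628Q/R794A), 10 μM ATP, 250 μM peptide, 40 min RT, top 1 μM.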
A general note: Time-resolved FRET reads energy transfer from a long-lived donor to a nearby acceptor.

Test [2] addresses T2, Human Met (Homo sapiens, UniProt P08581).
T2 construct: Human MET (residues 956-1390)
The test is described as follows: Human Met kinase assay (33P radiometric / HTRF KinEase). It counts as biochemical. Particulars: protocols of Examples D-1 and/or D-2; read-out: c-Met IC50. The essentials: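 Two formats gave IC50s by curve fitting. HTRF KinEase used MET residues 956-1390 with 1 μM biotin-peptide and 3.0 μM ATP (Km) for 40 min at room temperature, ten doses in 3% DMSO, 665/620 nm read. The 33P transfer assay used mutant Met R974-S1390 A1209G/V1290L (3.4 nM), 10 μM ATP, 250 μM peptide, pH 7.0, 40 min, nine doses from 1 μM.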

A value given as a limit tells only on which side of the number the result lay.

T2 sequence (P08581 974-1390 limits assumed): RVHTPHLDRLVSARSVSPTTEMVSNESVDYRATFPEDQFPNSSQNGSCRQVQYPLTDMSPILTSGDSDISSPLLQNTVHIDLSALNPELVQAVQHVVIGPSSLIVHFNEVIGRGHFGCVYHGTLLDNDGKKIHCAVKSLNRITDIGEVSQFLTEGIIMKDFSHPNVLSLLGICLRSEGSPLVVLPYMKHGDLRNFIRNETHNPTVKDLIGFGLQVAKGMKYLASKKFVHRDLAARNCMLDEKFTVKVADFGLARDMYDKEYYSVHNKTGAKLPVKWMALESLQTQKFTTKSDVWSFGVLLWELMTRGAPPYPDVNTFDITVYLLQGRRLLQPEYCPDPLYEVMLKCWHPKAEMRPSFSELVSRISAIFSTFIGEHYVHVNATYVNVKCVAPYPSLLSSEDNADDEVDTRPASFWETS

The IC50 is the concentration that gives 50% inhibition. Regarding `COc1cc2nccc(Oc3ccc(NC(=O)c4cnc(C)c(/C=C/C5CCCC5)c4O)cc3F)c2nc1OC` [Compound 25, 5-[(E)-2-Cyclopentylethenyl]-N-[4-[(6,7-dimethoxy-1,5-naphthyridin-4-yl)oxy]-3-fluorophenyl]-4-hydroxy-6-methylpyridine-3-carboxamide], the results for the IC50 in test [1] and in test [2] were not above 100 nM and more than 300 nM, respectively.
As to `COc1cc2nccc(Oc3ccc(NC(=O)c4cnc(C)c(/C=C/C5CC5)c4O)cc3F)c2nc1OC` [Compound 26, 5-[(E)-2-Cyclopropylethenyl]-N-[4-[(6,7-dimethoxy-1,5-naphthyridin-4-yl)oxy]-3-fluorophenyl]-4-hydroxy-6-methylpyridine-3-carboxamide], the IC50 in test [1] and in test [2] was not above 100 nM in each case.
In the case of `COc1cc2nccc(Oc3ccc(NC(=O)c4cnc(C)c(/C=C/C(C)(C)C)c4O)cc3F)c2nc1OC` [Compound 27, N-[4-[(6,7-Dimethoxy-1,5-naphthyridin-4-yl)oxy]-3-fluorophenyl]-5-[(E)-3,3-dimethylbut-1-enyl]-4-hydroxy-6-methylpyridine-3-carboxamide], the IC50 in test [1] and in test [2] was not above 100 nM each time.
Regarding `COc1cc2nccc(Oc3ccc(NC(=O)c4cnc(C)c(/C=C/CC(C)C)c4O)cc3F)c2nc1OC` [Compound 28, N-[4-[(6,7-Dimethoxy-1,5-naphthyridin-4-yl)oxy]-3-fluorophenyl]-4-hydroxy-6-methyl-5-[(E)-4-methylpent-1-enyl]pyridine-3-carboxamide], the IC50 in test [1] was not above 100 nM; in test [2] it was more than 300 nM.
Consider `COc1cc2nccc(Oc3ccc(NC(=O)c4cnc(C)c(/C=C/CC(C)C)c4O)cc3F)c2cc1OC` [Compound 29, N-[4-(6,7-Dimethoxyquinolin-4-yl)oxy-3-fluorophenyl]-4-hydroxy-6-methyl-5-[(E)-4-methylpent-1-enyl]pyridine-3-carboxamide], for which the IC50 in test [1] and in test [2] was not above 100 nM throughout.
On to `COc1cc2nccc(Oc3ccc(NC(=O)c4cnc(C)c(/C=C/C(C)(C)C)c4O)cc3F)c2cc1OC` [Compound 30, N-[4-(6,7-Dimethoxyquinolin-4-yl)oxy-3-fluorophenyl]-5-[(E)-3,3-dimethylbut-1-enyl]-4-hydroxy-6-methylpyridine-3-carboxamide], for which the IC50 in test [1] and in test [2] was not above 100 nM throughout.
With `COc1cc2nccc(Oc3ccc(NC(=O)c4c(C)nc(C)c(C(C)C)c4O)cc3F)c2nc1OC` [Compound 31, N-[4-[(6,7-Dimethoxy-1,5-naphthyridin-4-yl)oxy]-3-fluorophenyl]-4-hydroxy-2,6-dimethyl-5-propan-2-ylpyridine-3-carboxamide], the IC50 in test [1] and in test [2] was not above 100 nM throughout.
Take `COc1cnc2c(Oc3ccc(NC(=O)c4c(C)nc(C)c(C(C)C)c4O)cc3F)ccnc2c1` [Compound 32, N-[3-Fluoro-4-[(7-methoxy-1,5-naphthyridin-4-yl)oxy]phenyl]-4-hydroxy-2,6-dimethyl-5-propan-2-ylpyridine-3-carboxamide]: the IC50 in test [1] and in test [2] was not above 100 nM each time.
As for `COCCOc1cc2nccc(Oc3ccc(NC(=O)c4cnc(C)c(C5=CCCC5)c4O)cc3F)c2nc1OC` [Compound 33, 5-(Cyclopenten-1-yl)-N-[3-fluoro-4-[[6-methoxy-7-(2-methoxyethoxy)-1,5-naphthyridin-4-yl]oxy]phenyl]-4-hydroxy-6-methylpyridine-3-carboxamide], the IC50 in test [1] and in test [2] was not above 100 nM each time.
Take `COCCOc1cc2nccc(Oc3ccc(NC(=O)c4cnc(C)c(C5=CCCCC5)c4O)cc3F)c2nc1OC` [Compound 34, 5-(Cyclohexen-1-yl)-N-[3-fluoro-4-[[6-methoxy-7-(2-methoxyethoxy)-1,5-naphthyridin-4-yl]oxy]phenyl]-4-hydroxy-6-methylpyridine-3-carboxamide]: the IC50 in test [1] and in test [2] was not above 100 nM each time.

For the origin of these results see patent US20240158393A1, “PYRIDONE COMPOUNDS AND METHODS OF USE” (Exelixis, Inc., priority 2021, published 2024).
